In ChEMBL document CHEMBL1201862, “PubChem BioAssay data set” (2004):
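Results reflect a 48-hour exposure of cells in 96-well plates to compound at five concentrations. At the GI50, growth is halved.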 Active and inactive are the calls of the source. No stated cut-off is given here; in the data, active = GI50 up to about 1.1 µM and inactive = higher.

Columns and labels:
Experiment in all cases: DTP human tumour cell line panel, 48 h
[1] = tested on: SF-539
[2] = tested on: ACHN
[3] = tested on: CAKI-1
[4] = tested on: DU-145
[5] = tested on: U-251
[6] = tested on: UACC-257
[7] = tested on: Malme-3M
[8] = tested on: T47D
[9] = tested on: SNB-19
[10] = tested on: NCI/ADR-RES
[11] = tested on: BT-549
[12] = tested on: NCI-H226
[13] = tested on: SK-MEL-5
[14] = tested on: PC-3
[15] = tested on: RXF 393
[16] = tested on: SF-295
[17] = tested on: M14
[18] = tested on: NCI-H460
[19] = tested on: MOLT-4
[20] = tested on: SR
[21] = tested on: A498
[22] = tested on: SK-MEL-2
[23] = tested on: TK-10
[24] = tested on: MDA-N
[25] = tested on: HT-29
[26] = tested on: MDA-MB-435
[27] = tested on: HOP-92
[28] = tested on: SK-OV-3
[29] = tested on: KM12
[30] = tested on: SF-268
[31] = tested on: HCT-15
[32] = tested on: SW-620
[33] = tested on: UO-31
[34] = tested on: OVCAR-3
[35] = tested on: SN12C
[36] = tested on: LOX IMVI
[37] = tested on: IGROV-1
[38] = tested on: MDA-MB-231
[39] = tested on: A549
[40] = tested on: HOP-62
[41] = tested on: MCF7
[42] = tested on: NCI-H522
[43] = tested on: HCT-116
[44] = tested on: OVCAR-4
[45] = tested on: SK-MEL-28
[46] = tested on: RPMI-8226
[47] = tested on: Hs-578T
[48] = tested on: COLO 205
[49] = tested on: HL-60
[50] = tested on: CCRF-CEM
[51] = tested on: NCI-H23
[52] = tested on: UACC-62
[53] = tested on: 786-0

## COc1cc(C=O)cc(/C=N/N=C/c2ccccc2O)c1O
[1]
  GI50: 4.73 µM (inactive)
[2]
  GI50: 16.7 µM (inactive)
[3]
  GI50: 19.8 µM (inactive)
[4]
  GI50: 66.4 µM (inactive)
[5]
  GI50: 29.8 µM (inactive)
[6]
  GI50: 32.9 µM (inactive)
[7]
  GI50: 3.97 µM (inactive)
[8]
  GI50: 4.71 µM (inactive)
[9]
  GI50: 32.3 µM (inactive)
[10]
  GI50: 36 µM (inactive)
[11]
  GI50: 10.2 µM (inactive)
[12]
  GI50: 16.6 µM (inactive)
[13]
  GI50: 29.1 µM (inactive)
[14]
  GI50: 12.1 µM (inactive)
[15]
  GI50: 37.3 µM (inactive)
[16]
  GI50: 2.7 µM (inactive)
[17]
  GI50: 15.6 µM (inactive)
[18]
  GI50: 31.4 µM (inactive)
[19]
  GI50: 0.0182 µM (active)
[20]
  GI50: 19.8 µM (inactive)
[21]
  GI50: > 100 µM (inactive)
[22]
  GI50: 17.3 µM (inactive)
[23]
  GI50: 82.6 µM (inactive)
[24]
  GI50: 25 µM (inactive)
[25]
  GI50: 34.1 µM (inactive)
[26]
  GI50: 23.9 µM (inactive)
[27]
  GI50: 3.22 µM (inactive)
[28]
  GI50: 12.7 µM (inactive)
[29]
  GI50: 76.9 µM (inactive)
[30]
  GI50: 36.6 µM (inactive)
[31]
  GI50: 40.1 µM
[32]
  GI50: 62.2 µM (inactive)
[33]
  GI50: 24.6 µM (inactive)
[34]
  GI50: 25.5 µM (inactive)
[35]
  GI50: 17.6 µM (inactive)
[36]
  GI50: 21.7 µM (inactive)
[37]
  GI50: 40.1 µM (inactive)
[38]
  GI50: 23.7 µM (inactive)
[39]
  GI50: 79.6 µM (inactive)
[40]
  GI50: 30.7 µM (inactive)
[41]
  GI50: 64.7 µM (inactive)
[42]
  GI50: 40.5 µM (inactive)
[43]
  GI50: 26.1 µM (inactive)
[44]
  GI50: > 100 µM (inactive)
[45]
  GI50: 14.7 µM (inactive)
[46]
  GI50: 16.4 µM (inactive)
[47]
  GI50: 2.92 µM (inactive)
[48]
  GI50: 30.5 µM (inactive)
[49]
  GI50: < 0.01 µM (active)
[50]
  GI50: 8.85 µM (inactive)
[51]
  GI50: 23.6 µM (inactive)
[52]
  GI50: 28.4 µM (inactive)
[53]
  GI50: 19.2 µM (inactive)
